test system: HCT-116; assay: Cytotoxicity against human HCT-116 cells incubated for 48 hrs by MTT assay; format: functional, cell-based; conditions: HCT-116, 48 h

SMILES | IC50
O=C1C=CC[C@H](C[C@@H]2C[C@@H]3C[C@@](/C=C/c4ccccc4)(Oc4cc5c(c(O)c43)C(=O)C[C@@H](c3ccccc3)O5)O2)O1 | 7.2 µM
COC(=O)CCC[C@@H]1C[C@@H]2C[C@@](CCc3ccccc3)(Oc3cc4c(c(O)c32)C(=O)C[C@H](c2ccccc2)O4)O1 | > 10 µM
O=C(O)CCC[C@@H]1C[C@@H]2C[C@@](/C=C/c3ccccc3)(Oc3cc4c(c(O)c32)C(=O)C[C@@H](c2ccccc2)O4)O1 | > 10 µM
O=C1C=CC[C@H](C[C@@H]2C[C@@H]3C[C@@](CCc4ccccc4)(Oc4cc5c(c(O)c43)C(=O)C[C@@H](c3ccccc3)O5)O2)O1 | 6.1 µM
COC(=O)CCC[C@@H]1C[C@@H]2C[C@@](CCc3ccccc3)(Oc3cc4c(c(O)c32)C(=O)C[C@@H](c2ccccc2)O4)O1 | > 10 µM
O=C1CCC[C@@H]2C[C@H](C[C@](O)(/C=C/c3ccccc3)O2)c2c(cc(O)c3c2O[C@@H](c2ccc(O)cc2)CC3=O)O1 | 4.5 µM
O=C1CCC[C@@H]2C[C@H](C[C@](O)(/C=C/c3ccccc3)O2)c2c(cc(O)c3c2O[C@H](c2ccc(O)cc2)CC3=O)O1 | 4.2 µM
O=C1C=CC[C@H](C[C@@H]2C[C@@H]3C[C@@](CCc4ccccc4)(Oc4cc5c(c(O)c43)C(=O)C[C@H](c3ccccc3)O5)O2)O1 | 5.8 µM
O=C(O)CCC[C@@H]1C[C@@H]2C[C@@](/C=C/c3ccccc3)(Oc3cc4c(c(O)c32)C(=O)C[C@H](c2ccccc2)O4)O1 | > 10 µM

— ChEMBL document CHEMBL5120884, “Complex Flavanones from Cryptocarya metcalfiana and Structural Revision of Oboflavanone A” (J Nat Prod, 2022)
